# Laboratory results: US12479858B2, “Macrocyclic compounds as sting agonists and methods and uses thereof” (Lupin Limited, priority 2019, dated 2025)
# Like-named read-outs stand apart in the source and are kept apart here.
# Tests used:
# [1] = the molecule shown is the open-chain precursor; snar bond; 15-membered ring; (E)-but-2-ene-1,4-diamine 2HCl/DIPEA; EtOH/THF 3:1; 46.0 mM; 105.0 °C
# [2] = snar bond, 15-membered ring, (E)-but-2-ene-1,4-diamine 2HCl/DIPEA
molecule,measurement,setting,value
CCOC(=O)c1cc(OCCCOc2cc(C(=O)OC(C)(C)C)cc([N+](=O)[O-])c2Cl)c(Cl)c([N+](=O)[O-])c1,"ring closure, isolated yield",[1],90%
"diethyl (E)-7-(8-oxa-3-azabicyclo[3.2.1]octan-3-yl)-1,13-dinitro-7,8,14,15,18,19-hexahydro-6H-dibenzo[b,j][1,12]dioxa[4,9]diazacyclopentadecine-3,11-dicarboxylate","ring closure, crude yield","[2]; EtOH/THF 7.4:1, 148.0 mM, 110.0 °C",88%
CCOC(=O)c1cc(OCCCOc2cc(C(N)=O)cc([N+](=O)[O-])c2Cl)c(Cl)c([N+](=O)[O-])c1,"ring closure, crude yield","[2]; the molecule shown is the open-chain precursor, EtOH/THF 3:1, 99.5 mM, 120.0 °C",73%
CCOC(=O)c1cc(OCC(COc2cc(C(=O)OCC)cc([N+](=O)[O-])c2Cl)N2CCOCC2)c(Cl)c([N+](=O)[O-])c1,"ring closure, crude yield","[2]; the molecule shown is the open-chain precursor, EtOH/THF 7:1, 156.5 mM, 110.0 °C",88%
CCOC(=O)c1cc(OC[C@H](COc2cc(C(=O)OC(C)(C)C)cc([N+](=O)[O-])c2Cl)N2C3CCC2COC3)c(Cl)c([N+](=O)[O-])c1,"ring closure, crude yield","[2]; the molecule shown is the open-chain precursor, EtOH, 121.0 mM, 105.0 °C",89.8%
